In US8697694B2, “Substituted pyridine and pyrimidine derivatives and their use in treating viral infections” (priority 2008, dated 2014):

These molecules were tested on HCV replicon cells (assay: Cell-based HCV replicon assay (replicon RNA level by real time PCR, Taqman)). Conditions: Hepatitis C virus, 72 h, HCV replicon cells, replicon RNA level by real time PCR, harvested day 3; read-out: EC90 (μM) range.
In short: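 Readout: ΔCT between NS5B replicon RNA and GAPDH by real-time RT-PCR in lysates harvested on day 3, fitted sigmoidally; EC50 at ΔCT=1, EC90 at ΔCT=3.2. Compounds tested at ten 2-fold dilutions from 25 μM to 1 μM start, 10% FBS, 0.5% DMSO.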
For `Cc1nc(NC2CC2)nc(N[C@@H]2C[C@H](CO)[C@@H](O)[C@H]2O)c1-c1nc2c(CC(C)C)nccc2s1` [Example 1537], the EC90 was under 0.5 µM. In the case of `Cc1nc(NCC(F)(F)F)nc(N[C@@H]2C[C@H](Cn3ccnn3)[C@@H](O)[C@H]2O)c1-c1nc2ccccc2s1` [Example 1538], the EC90 is reported as under 0.5 µM. With `Cc1ccccc1[C@H](Nc1nc(C)c(-c2nc3c(C)nccc3s2)c(N[C@@H]2C[C@H](CO)[C@@H](O)[C@H]2O)n1)C(F)(F)F` [Example 1539] the EC90 was under 0.5 µM. `COc1ccc([C@H](Nc2nc(C)c(-c3nc4c(C)nccc4s3)c(N[C@@H]3C[C@H](CO)[C@@H](O)[C@H]3O)n2)C(F)(F)F)cc1` [Example 1540] gave an EC90 of under 0.5 µM. `Cc1nc(N[C@@H](c2ccc(-n3cccn3)cc2)C(F)(F)F)nc(N[C@@H]2C[C@H](CO)[C@@H](O)[C@H]2O)c1-c1nc2c(C)nccc2s1` [Example 1541] gave an EC90 of under 0.5 µM. `Cc1nc(N[C@H](C)c2ccc(OC(F)(F)F)cc2)nc(N[C@@H]2CC[C@@H](O)[C@@]2(C)O)c1-c1nc2cnccc2s1` [Example 1542] was tested, and the EC90 was 0.5 to 5 µM. In the case of `Cc1nc(NC2CC2)nc(N[C@@H]2C[C@H](CO)[C@@H](O)[C@H]2O)c1-c1nc2c(C)nccc2s1` [Example 1543], the EC90 is reported as under 0.5 µM. In the case of `Cc1nc(NC2CCC2)nc(N[C@@H]2C[C@H](CO)[C@@H](O)[C@H]2O)c1-c1nc2c(C)nccc2s1` [Example 1544], the EC90 is reported as under 0.5 µM. Molecule `Cc1nc(N[C@H](C)c2ccc(OC(F)F)cc2)nc(N[C@@H]2C[C@H](CO)[C@@H](O)[C@H]2O)c1-c1nc2c(C)nccc2s1` [Example 1545] has an EC90 of under 0.5 µM. `Cc1nc(N[C@@H](c2ccc(OC(F)(F)F)cc2)C(F)(F)F)nc(N[C@@H]2C[C@H](CO)[C@@H](O)[C@H]2O)c1-c1nc2c(C)nccc2s1` [Example 1546] gave an EC90 of under 0.5 µM. Work on `COCCNc1nc(C)c(-c2cc3ccccc3s2)c(N[C@@H]2C[C@H](CO)[C@@H](O)[C@H]2O)n1` [Example 1601] yielded an EC90 of over 5 µM. `Cc1nc(NCc2cccs2)nc(N[C@@H]2C[C@H](CO)[C@@H](O)[C@H]2O)c1-c1cc2ccccc2s1` [Example 1602] was tested, and the EC90 was over 5 µM. `Cc1nc(NCC2CC2)nc(N[C@@H]2C[C@H](CO)[C@@H](O)[C@H]2O)c1-c1cc2ccccc2s1` [Example 1603] was tested, and the EC90 was over 5 µM. With `Cc1nc(NCC(F)(F)F)nc(N[C@@H]2C[C@H](CO)[C@@H](O)[C@H]2O)c1-c1cc2ccccc2s1` [Example 1604] the EC90 was over 5 µM. `Cc1nc(O)nc(N[C@@H]2C[C@H](CO)[C@@H](O)[C@H]2O)c1-c1nc2ccccc2s1` [Example 1605] was tested, and the EC90 was over 5 µM. With `Cc1nc(NCC2CC2)nc(NC2CC(CO)(CO)C2)c1-c1nc2ccccc2s1` [Example 1610] the EC90 was 0.5 to 5 µM. `Cc1cc(NCC2CC2)nc(N[C@@H]2C[C@H](CO)[C@@H](O)[C@H]2O)c1-c1nc2ccccc2s1` [Example 1616] gave an EC90 of over 5 µM. In the case of `Cc1nc(NCC2CC2)nc(NC[C@@H]2CC2(CO)CO)c1-c1nc2ccccc2s1` [Example 1617], the EC90 is reported as over 5 µM. `Cc1nc(NCC(F)(F)F)nc(NC[C@@H]2CC2(CO)CO)c1-c1nc2ccccc2s1` [Example 1618] showed an EC90 of 0.5 to 5 µM. `Cc1ccc([C@@H](C)Nc2cc(C)c(-c3nc4ccccc4s3)c(N[C@@H]3C[C@H](CO)[C@@H](O)[C@H]3O)n2)cc1` [Example 1619] was tested, and the EC90 was over 5 µM. With `Cc1nc(Nc2cccc3cccnc23)nc(N[C@@H]2C[C@H](CO)[C@@H](O)[C@H]2O)c1-c1nc2ccccc2s1` [Example 1620] the EC90 was over 5 µM. `Cc1nc(N[C@H](C)C(F)(F)F)nc(N[C@@H]2C[C@H](CO)[C@@H](O)[C@H]2O)c1-c1nc2ccccc2s1` [Example 1623] was tested, and the EC90 was 0.5 to 5 µM. Work on `Cc1nc(NCC(F)(F)F)nc(N[C@@H]2CC[C@@H](O)C2O)c1-c1nc2ccccc2s1` (some centres unmarked) [Example 1625] yielded an EC90 of 0.5 to 5 µM. `Cc1nc(NCC2CC2)nc(N[C@@H]2CC[C@@H](O)C2O)c1-c1nc2ccccc2s1` (some centres unmarked) [Example 1626] was tested, and the EC90 was 0.5 to 5 µM. `Cc1nc(NCC2CC2)nc(N[C@H]2[C@H](O)CC[C@@H]2O)c1-c1nc2ccccc2s1` [Example 1627] was tested, and the EC90 was over 5 µM. `CCNC(=O)OC[C@H]1C[C@@H](Nc2nc(NCC(F)(F)F)nc(C)c2-c2nc3ccccc3s2)[C@H](O)[C@@H]1O` [Example 1628] was tested, and the EC90 was under 0.5 µM.
